Data taken from US8309599B2, “Synthesis of FR901464 and analogs with antitumor activity” (University of Pittsburgh-Of The Commonwealth System of …, priority 2006, dated 2012).
Read-outs that look alike come from different tables or passages of the source.

Key:
MCF-7 [1] = details: MCF-7, 5-day assay
MCF-7 cells [2] = assay: MCF-7 cell count with hemacytometer and trypan blue; details: for percent of cells present: 200 nM positive control; for viability at 0.01 µM: Homo sapiens
Procedure: MCF-7 cells were used in this experiment.
Cell proliferation was measured by manual counting using a hemacytometer by trypsinizing and staining with trypan blue.

HeLa cells [3] = assay: High-content analysis of mitotic arrest and microtubule perturbation; assay type: cell-based; details: HeLa cells treated for 21 h
[4] = system: DC3F transformed Chinese hamster cells; assay: Antiproliferative activity in parental cells; assay type: cell-based; details: for GI50: Cricetulus griseus, DC3F, read-out: average GI50 DC3F; for growth inhibition of parental DC3F cells: in words
[5] = system: multidrug resistant subline VCRd5L; assay: Antiproliferative activity in multidrug resistant cells; assay type: cell-based, Chinese hamster; details: for GI50: Cricetulus griseus, read-out: average GI50 VCRd5L
HeLa = assay type: cell-based; details: Homo sapiens, 3 to 5 days
H1299 = assay type: cell-based; details: Homo sapiens, NCI-H1299; H1299, 3 to 5 days
A549 = assay type: cell-based; details: Homo sapiens; A549, 3 to 5 days
MDA-MB-231 = assay type: cell-based; details: Homo sapiens; MDA-MB-231, 3 to 5 days
MCF-7 [6] = assay: cells; details: Homo sapiens, MCF7
HCT116 = assay type: cell-based; details: Homo sapiens, HCT-116; HCT116, 3 to 5 days
A549 cells = assay: Reversibility test (drug washout, MTS); assay type: cell-based; details: 1 nM, washout at intervals, read at 72 h
Procedure: (§1) One concentration was used in each experiment for all times examined. […] At the desired time intervals, the media containing the drug was removed, the wells were washed 5 times with new media and 200 μL of new media containing 1% DMSO was added.
(§2) All cells were treated at the same time meayamycin at 1 nM concentration. At the given time interval, the drug-containing media was removed and replaced with fresh media. Cell proliferation was measured at the last time interval (72 h).

HeLa cells [7] = assay: Reversibility test (drug washout, MTS); assay type: cell-based; details: preliminary result
Procedure: as §1, §2

MCF-7 cells [8] = assay: Reversibility test (drug washout, MTS); assay type: cell-based; details: 1 nM, washout at intervals, read at 72 h
Procedure: as §1, §2

DU145 = assay type: cell-based; details: Homo sapiens, DU-145; DU145, 3 to 5 days
[9] = system: IMR-90 human lung fibroblasts; assay: High-content selectivity study, normal cells
PC-3 = assay type: cell-based; details: Homo sapiens; PC-3, 3 to 5 days
A-549 lung cancer cells = assay: High-content selectivity study, cancer cells
MCF-7 cells [10] = details: read-out: LC50 (apparent apoptosis); cited from earlier work
[11] = mouse model; cited from earlier work
[12] = system: mRNA levels of p53, p21, c-myc, and E2F-1; details: MCF-7 cells at 20 nM; cited from earlier work
[13] = MCF7, 24 h, read-out: Percent Viable Cells, 10 nM, 24 hours
[14] = MCF7, 48 h, read-out: Percent Viable Cells, 10 nM, 48 hours

Question: For `CC(/C=C/[C@H]1OC(C)(C)C[C@@]2(CO2)[C@@H]1O)=C\C[C@@H]1O[C@H](C)[C@H](NC(=O)/C=C\[C@H](C)OC(=O)N2CCOCC2)C[C@@H]1C` [meayamycin B, (2Z,4S)-4-[(morpholinylcarbonyl)oxy]-N-[(2R,3R,5S,6S)-tetrahydro-6-[(2E,4E)-5-[(3R,4R,5R)-4-hydroxy-7,7-dimethyl-1,6-dioxaspiro[2.5]oct-5-yl]-3-methyl-2,4-pentadien-1-yl]-2,5-dimethyl-2H-pyran-3-yl]-2-pentenamide], which “times more potent than meayamycin in cultured cells” value (MCF-7 [1]) is on record?
Answer: 2 times

Question: For `CC(=O)O[C@H]1C(=O)[C@@]2(C)[C@H]([C@H](OC(=O)c3ccccc3)[C@]3(O)C[C@H](OC(=O)[C@H](O)[C@@H](NC(=O)c4ccccc4)c4ccccc4)C(C)=C1C3(C)C)[C@]1(OC(C)=O)CO[C@@H]1C[C@@H]2O` [paclitaxel], which “percent of cells present” value (MCF-7 cells [2]; 24 hour) is on record?
Answer: 70%

Question: And the “percent of cells present” value (MCF-7 cells [2]; 48 hour)?
Answer: 52%

Question: What about the mitotic arrest (HeLa cells [3]) of the same compound?
Answer: caused mitotic arrest

Question: What about the GI50 ([4]; average ± SD (n)) of the same compound?
Answer: 45.4 ± 11.3 nM

Question: And the “fold resistant (VCRd-5L cells)” value [5]?
Answer: 60 fold

Question: And the GI50 ([5]; average ± SD (n))?
Answer: 2680 ± 109 nM

Question: For `CC[C@]1(O)C[C@H]2CN(CCc3c([nH]c4ccccc34)[C@@](C(=O)OC)(c3cc4c(cc3OC)N(C=O)[C@H]3[C@@](O)(C(=O)OC)[C@H](OC(C)=O)[C@]5(CC)C=CCN6CC[C@]43[C@@H]65)C2)C1` [vincristine], which mitotic arrest (HeLa cells [3]) is on record?
Answer: caused mitotic arrest

Question: And the GI50 ([4]; average ± SD (n))?
Answer: 18.8 ± 16.2 nM

Question: What about the “fold resistant (VCRd-5L cells)” value [5] of the same compound?
Answer: > 250 fold

Question: What about the GI50 ([5]; average ± SD (n)) of the same compound?
Answer: > 5000 nM

Question: For `CC(/C=C/[C@H]1OC(C)(C)C[C@@]2(CO2)[C@@H]1O)=C\C[C@@H]1O[C@H](C)[C@H](NC(=O)/C=C\[C@H](C)O)C[C@@H]1C` [4′-desacetyl meayamycin], which GI50 (HeLa) is on record?
Answer: 1 nM

Question: And the GI50 (H1299)?
Answer: 1 nM

Question: And the GI50 (A549)?
Answer: 0.74 nM

Question: And the GI50 (MDA-MB-231)?
Answer: 0.35 nM

Question: What about the GI50 (MCF-7 [6]) of the same compound?
Answer: 0.48 nM

Question: What does the source list for `CC(=O)O[C@@H](C)/C=C\C(=O)N[C@@H]1C[C@H](C)[C@H](C/C=C(C)/C=C/[C@H]2OC(C)(C)C[C@@]3(CO3)[C@@H]2O)O[C@@H]1C` [meayamycin]?
Answer: GI50 (HeLa): 0.24 nM; GI50 (HCT116): 0.044 nM; GI50 (H1299): 0.091 nM; Percent Viable Cells (MCF-7 cells [2]; 10 nM, 48 hours, listed as Compound IX, 0.01 µM): 26%; viability at 0.01 µM (MCF-7 cells [2]; [13]): 46%; viability at 0.01 µM (MCF-7 cells [2]; [14]): 27%; reversibility of growth inhibition (A549 cells): irreversibly inhibits the growth; reversibility of growth inhibition (HeLa cells [7]): reversibly inhibits the growth; reversibility of growth inhibition (MCF-7 cells [8]): irreversibly inhibits the growth; mitotic arrest (HeLa cells [3]): neither FR 901464 nor meayamycin were mitotic arresters; GI50 (DU145): 0.47 nM; p53 induction ([9]; 24 h): magnitude of response was smaller; growth inhibition of normal lung cells (IMR-90) ([9]; FIG. 5): only mildly; GI50 (A549): 0.11 nM; GI50 (PC-3): 0.058 nM; GI50 [4]: 0.46 ± 0.09 nM; growth inhibition of parental DC3F cells [4]: active in the subnanomolar range; GI50 (MDA-MB-231): 0.024 nM; activity in the multidrug resistant cells [5]: retained picomolar activity; fold resistance [5]: 1.5 fold; GI50 [5]: 0.71 ± 0.27 nM; GI50 (MCF-7 [6]): 0.01 nM; cell loss (A-549 lung cancer cells; 10 nM, 24 hours, compared with normal cells): more pronounced cell loss; nuclear morphology (A-549 lung cancer cells; 24 h): did not cause nuclear fragmentation but instead enlarged nuclei; p53 induction (A-549 lung cancer cells; 24 h): p53 induction; caspase cleavage (A-549 lung cancer cells; 24 h, some experiments): low level of caspase cleavage; growth inhibition of A549 cells (A-549 lung cancer cells; FIG. 4): inhibits the growth of A549 cells

Question: What does the source list for `CC(=O)O[C@@H](C)/C=C\C(=O)N[C@@H]1C[C@H](C)[C@H](C/C=C(C)/C=C/[C@H]2O[C@](C)(O)C[C@@]3(CO3)[C@@H]2O)O[C@@H]1C` [FR901464]?
Answer: viability at 0.01 µM (MCF-7 cells [2]; [13]): 81%; viability at 0.01 µM (MCF-7 cells [2]; [14]): 49%; CC50 (MCF-7 cells [10]): 0.5 nM; mitotic arrest (HeLa cells [3]): neither FR 901464 nor meayamycin were mitotic arresters; antitumor activity, active dose [11]: 0.056 to 0.18 mg/kg; mRNA levels of p53, p21, c-myc, and E2F-1 [12]: lowers the mRNA levels; GI50 [4]: 7.49 ± 1.26 nM; growth inhibition of parental DC3F cells [4]: potently inhibited the growth

Question: With `CC(=O)O[C@@H](C)/C=C\C(=O)N[C@@H]1CC[C@H](C/C=C(C)/C=C/[C@H]2OC(C)(C)C[C@@]3(CO3)[C@@H]2O)O[C@@H]1C` [12-desmethyl meayamycin] as the compound, how does the GI50 (HCT116) read?
Answer: 2.2 nM

Question: And the GI50 (H1299)?
Answer: 2.8 nM

Question: What about the GI50 (DU145) of the same compound?
Answer: 3.5 nM

Question: What about the GI50 (A549) of the same compound?
Answer: 1 nM

Question: And the GI50 (PC-3)?
Answer: 1.6 nM

Question: What about the GI50 (MDA-MB-231) of the same compound?
Answer: 0.7 nM

Question: What about the GI50 (MCF-7 [6]) of the same compound?
Answer: 0.3 nM

Question: Which GI50 (MCF-7 [6]) does the source give for `CC(=O)O[C@@H](C)/C=C\C(=O)N[C@@H]1CO[C@H](C/C=C(C)/C=C/[C@H]2OC(C)(C)C[C@@]3(CO3)[C@@H]2O)O[C@@H]1C` [acetal meayamycin] here?
Answer: 2.5 nM
